Assay results from article PMC11656837, “pH-Responsive Peptide Nanoparticles Deliver Macromolecules to Cells via Endosomal Membrane Nanoporation” (ACS Nano, 2024).
pEC50: −log10 of the molar value.

Experiments:
HeLa cells [1] = settings: 40 nM PE-III
From the text: For this, we use PE-III, the third domain of the Pseudomonas exotoxin. This 25 kDa enzyme ADP ribosylates ribosomal elongation factor 2, thereby blocking protein synthesis and triggering apoptosis. […] Thus, apoptosis will occur only if an exogenous agent, such as a peptide, enables cytosolic delivery of the 4 × 3 nm PE-III protein, Figure 2A.
Comparison of peptide concentration midpoints requires a constant concentration of PE-III in each experiment. […] The major disadvantage of the PE-III assay to detect delivery is that only a few molecules of active PE-III delivered to the cytosol[36] will produce a positive result. To partly mitigate this effect in the assays described below, we use a constant 40 nM PE-III. At such a low concentration, each endosome will contain an average of fewer than one PE-III molecule if we assume passive entrapment of the cargo (see the Supporting Information).
The no treatment (no tx) control group contained cells but no peptide or PE-III enzyme. The Alamar Blue intensity of this group was defined as 100% viability. Media alone without cells was defined as 0% viability.
The concentration range used for each peptide was adjusted according to preliminary measurements of activity in this assay. We assessed PE-III delivery by measuring cell viability using Alamar Blue.
Fifteen thousand HeLa cells were seeded in a clear bottom, black-walled 96-well plate overnight at 37 °C with 5% CO2 in complete media (DMEM + phenol red +10% FBS + antimycotic/antibiotic + nonessential amino acids). Cells were then washed once in PBS and treated with PE-III and peptide in serum-free media without phenol red, with a 50 μL total volume. After a 2-day incubation with treatment, 50 μL of 10% Alamar blue reagent diluted in serum-free media was added directly to each well (5% Alamar blue final) and incubated for 1.5 h at 37 °C. The plate was then read at 550 equiv/590 em on a Biotek plate reader. Untreated cells were used as a negative control, and MelP5-treated cells served as a positive control.

HeLa cells [2] = test: Cytosolic delivery of AF488-dextran 10 kDa (confocal microscopy); type: cell-based, human
Description: Just before imaging, cell nuclei were stained with Hoechst 33342 (blue); the external AF488-dextran was washed away, and AF647-dextran (lavender) was added to mark the extracellular spaces and cell boundaries. […] Individual intensity scans across single cells, indicated by the yellow arrows, are plotted in Figure 5E,F as examples. To measure cytosolic dextran concentrations, dextran intensity was measured in the external spaces, where it is at background levels and in puncta-free, nuclear/cytosolic areas of each cell.
These experiments were done using a very low solution concentration of 0.1 μM AF488-dextran 10 kDa to minimize any possible self-quenching in endosomes and to minimize any osmotic effect of the dextran on endosomal stability. […] Before imaging, the AF488-dextran was washed off, and Cascade Blue dextran 10 kDa was added to mark the external spaces and cell boundaries. […] Dextran delivered to the cytosol and nucleus, which was the only intensity that we measured in Figure 6A,B, was identified by its diffuse and uniform intensity in the nucleus and cytosol of each cell. In Figure 6E, cytosolic and nuclear concentrations of dextran are expressed as a percent of the external concentration incubated with cells based on comparison to a standard curve of fluorescence intensity versus concentration that was measured separately at the same instrument settings.
After overnight incubation, external AF488-dextran (green) was washed off and replaced with Cascade Blue dextran (blue) or AF647-dextran (lavender) just before imaging to mark the external spaces and cell boundaries. Cells were also treated with Hoechst 33342 (blue) to stain the nuclei. Quantitation was performed by generating a standard curve from microscopy images of solutions of AF488-dextran of known concentrations. For quantification, we noted the intensity of the cell nuclei. Multiple small circular areas of interest of a preset size were selected in cells in areas that were in the nucleus or had no obvious puncta. The same was done for the standard curve images. The fluorescence of each point of interest was quantified using the Nikon Elements software, and the concentration was determined using a standard curve and expressed as a percent of the initial incubating concentration.

[3] = Description: This was done by incubating 50 μM peptide under each experimental condition for 60 min, followed by centrifugation at 1400g to remove large aggregates, and by subsequent centrifugation at 11,000g to remove intermediate aggregates. Peptide concentration in solution before and after centrifugation was determined by reverse phase HPLC.
Dried peptides were reconstituted in 50 μL of PBS at pH 7 or at pH 5. The solutions were bath-sonicated briefly and incubated at room temperature for 30 min. Three aliquots of each sample were removed for analysis: one before centrifugation, one after centrifugation for 5 min at 1400g, and one after centrifugation for 10 min at 11,000g. These aliquots were diluted and analyzed by reverse phase HPLC. The integrated peak area of the tryptophan fluorescence peak was determined for each sample.

HeLa cells [4] = test: Cell binding (peptide remaining in solution by HPLC); type: cell-based, human; settings: HeLa 10^6 cells/ml in PBS pH 7, 20 μM peptide, 30 min, room temperature, supernatant by HPLC
Description: This was done by equilibrating a peptide solution with and without cells for 30 min, followed by measurement of the peptide remaining in solution using reverse phase HPLC. […] The cells were also stained with the DNA staining dye Hoechst 33342. […] Cell/membrane staining by C16-D-pHD108-TAMRA continues to grow rapidly as peptides accumulate on the membranes.
HeLa or RAW 264.7 cells were trypsinized, washed, and counted. Cells were concentrated in a minimal amount of PBS. To measure binding, 25 μL of cells at a known count were transferred to tubes and 25 μL of peptide in PBS was added for a final peptide concentration of 20 μM. Samples were incubated for 30 min with gentle agitation at room temperature. Cells were pelleted in a swinging bucket centrifuge, and 30 μL of supernatant was subjected to HPLC to measure the peptide remaining in the solution. A sample without cells but treated identically was used as a negative control for binding to normalize the recovered peptide.

Compound: CCCCCCCCCCCCCCCC(=O)NCC(=O)N[C@@H](C(=O)NCC(=O)N[C@H](CCC(=O)O)C(=O)N[C@@H](C(=O)N[C@H](CC(C)C)C(=O)N[C@H](Cc1c[nH]cn1)C(=O)N[C@H](CCC(=O)O)C(=O)N[C@H](CC(C)C)C(=O)N[C@H](C)C(=O)N[C@H](CCC(=O)O)C(=O)NCC(=O)N[C@H](CC(C)C)C(=O)N1CCC[C@@H]1C(=O)N[C@H](CCC(=O)O)C(=O)N[C@H](CC(C)C)C(=O)N[C@H](CCC(N)=O)C(=O)N[C@H](CCC(=O)O)C(=O)N[C@H](Cc1c[nH]c2ccccc12)C(=O)N[C@@H](C(=O)N[C@H](Cc1c[nH]cn1)C(=O)N[C@H](C)C(=O)N[C@H](C)C(=O)N[C@H](CCC(N)=O)C(=O)N[C@H](CCC(N)=O)C(=O)N[C@H](CC(C)C)C(N)=O)[C@H](C)CC)C(C)C)[C@H](C)CC [C16-D-pHD108]
- cells that undergo apoptosis (HeLa cells [1]; 10 μM peptide): > 98%
- fold increase in activity over unmodified pHD108 (HeLa cells [1]; from EC50 in HeLa): 74 fold
- pEC50 (HeLa cells [1]; read-out: EC50 (peptide concentration midpoint for PE-III-dependent apoptosis), HeLa, serum-free media, 48 h, 37 °C, Alamar Blue): 5.72
- cytosolic dextran concentration (HeLa cells [2]; 3 μM peptide, 0.1 μM AF488-dextran 10 kDa, overnight, 37 °C): Low but statistically significant
- cytosolic dextran concentration, average, percent of applied external concentration (HeLa cells [2]; 25 μM peptide, 0.1 μM AF488-dextran 10 kDa, overnight, 37 °C, ~50 cells): about 12%
- dextran staining of nucleus and cytosol (HeLa cells [2]; 25 μM peptide, 25 μM AF488-dextran 10 kDa, overnight, 37 °C): diffusely and uniformly stained with dextran
- delivery of dextran to the cytosol at 4 °C (HeLa cells [2]; 25 μM peptide, 4 °C): does not enable any measurable delivery of dextran to the cytosol
- plasma membrane permeabilization (entry of Cascade Blue dextran added before imaging) (HeLa cells [2]; 25 μM peptide, 37 °C): not permeabilized
- cytosolic delivery of AF488-dextran, C16-L-pHD108 compared with C16-D-pHD108 (HeLa cells [2]; HeLa, overnight, 37 °C): significantly more active
- solubility after dissolving at pH 7 and decreasing to pH 5 ([3]; 50 μM, pH 7 then pH 5, centrifugation, reverse phase HPLC): became insoluble
- solubility at pH 5 ([3]; from dried peptide, 50 μM in PBS pH 5, centrifugation 1400g then 11,000g, reverse phase HPLC): almost none of the peptides went into solution
- solubility and stability to centrifugation at pH 7 ([3]; from dried peptide, 50 μM in PBS pH 7, bath sonication, 60 min, room temperature, centrifugation 1400g then 11,000g, reverse phase HPLC (Trp fluorescence peak area)): remains soluble at pH 7 and is not removed by centrifugation
- solubility in buffer / PBS at pH 7 ([3]; pH 7, buffer or PBS): soluble in PBS and remained in solution at pH 7 for days
- binding to cells at pH 7 (HeLa cells [4]): no measurable binding
